Reference: patent US4632925A, “N-substituted diphenylpiperidines and antiobesity use thereof” (Hoffmann-La Roche Inc., priority 1985, dated 1986)

Key:
[1] = Glucose clearance: acute in vivo model; design: species or system Sprague-Dawley rats; settings: Rattus norvegicus, po, 0.5 h; 100 mg/kg intragastric, 30 min before i.p. glucose 1 g/kg; circulating glucose at 30 min; >100% indicates activity
Method: GLUCOSE CLEARANCE: ACUTE IN VIVO MODEL
The rationale for this test is that compounds which suppress insulin secretion should increase circulating glucose levels above those observed in controls following the administration of a high glucose load. Sprague-Dawley rats which range in weight from 150 to 180 grams after an overnight fast of 16 or 18 hours are given the test compound (100 mg/kg body weight) by intragastric administration 30 minutes before the intraperitoneal administration of glucose (1 g/kg body weight). Circulating glucose levels are determined immediately before glucose administration and 30, 60 and 90 minutes after glucose administration. Active compounds increase circulating glucose levels compared to controls. Since glucose levels peak at 30 minutes following glucose administration, the difference in circulating glucose levels between controls and treated rats at 30 minutes is used as an index of activity. The data are expressed as percent of control.

[2] = Antiobesity effects in obese Zucker rats; assay type: in vivo, genetically obese male Zucker rats; settings: for Circulating Insulin: last day of treatment
Method: ANTIOBESITY EFFECTS IN OBESE ZUCKER RATS
Genetically Obese Male Zucker rats were kept in temperature (22° C.) and light (12 hours light-dark cycle) regulated rooms. One week prior to the start of the experiment, the rats were transferred to individual wirebottomed cages and trained to eat a powdered chow diet (Ralston Purina Co., St. Louis, Mo.) ad libitum.
At the beginning of the experiment, the control group contributed to eat the chow diet and the experimental animals were given a chow diet containing drug. The amount of drug administered was calculated from the food intake per kg body weight for each experimental group. The age of the rats at the start of the drug treatment was two to three months. The period of treatment was 28 to 64 days. Food intake and body weights were recorded periodically (once each day to twice a week) throughout the duration of the study. Plasma samples for insulin and glucose determinations were taken from clipped tails. Carcass composition was determined at the end of the treatment period and, or comparative purposes, prior to the start of treatment.

[3] = tested on: isolated perfused rat pancreas (insulin secretion); assay: Insulin-secretory activity in the isolated perfused rat pancreas; design: species or system rat (female Charles River); settings: 50 μM; 16.7 mM glucose; index > 1 indicates suppression of insulin secretion
Method: DETERMINATION OF INSULIN-SECRETORY ACTIVITY IN THE ISOLATED PERFUSED RAT PANCREAS
Pancreases were obtained from young adult female Charles River rats weighing from 200-300 g. The animals were anesthesized with sodium pentobarbitol (45 mg/kg), injected intraperitoneally, and the pancreas with its intact vasculature was removed and connected to an extracorporeal perfusion apparatus.
The basic perfusion solution contained: 133 mM NaCl, 4.4 mM KCl, 2.5 mM MgSO4, 2.4 mM Ca gluconate, 1.5 mM KH2 PO4, 29.4 mM HaHCO3, 4% dextran and 0.2% bovine serum albumin and glucose as discussed below. The perfusion flow rate was kept constant at 4 ml/min. After a 15-20 minute equilibration period, the experimental protocol was begun. The pancreatic effluent was collected in either one or four-minute fractions.
The perfusion was run in the following sequence for each test compounds:
30 min 16.7 mM glucose--internal control
30 min 16.7 mM glucose and test compound
10 min 16.7 mM glucose--to check pancreas viability
The perfusion for the nontreated pancreas preparation was run as above, except that the test compound was omitted and replaced with perfusion solution.
Test compounds were dissolved in 90% ethanol or dimethylsulfoxide to a concentration of 25 mM and then diluted in the perfusion buffer to the desired concentration. The perfusion effluent was collected in one or four minute fractions--the samples were checked immediately, aliquoted for submission to radioimmunoassay and stored at -20° C. until the time of assay. The radioimmunoassay of insulin was carried out by a back-titration method using a pure rat insulin standard.
To assess the inhibitory activity of the test compounds, an inhibition index was calculated. The inhibition index is derived by comparing the insulin secretion response from treated versus nontreated pancreas preparations. For each preparation, a ratio of insulin secretion was calculated from the area under the insulin secretion curve of the first pulse of 16.7 mM glucose divided by the area under the curve of the second pulse of 16.7 mM glucose containing compound.

[4] = Antiobesity effects in obese Zucker rats; assay type: in vivo, genetically obese male Zucker rats; settings: 14 days

C(=C(c1ccccc1)c1ccccc1)C1CCN(CCCCCCCCc2cccnc2)CC1 [Example 25, 3-[8-[4-(2,2-diphenylethenyl)-1-piperidinyl]octyl]pyridine]
response vs control in vivo at 100 mg/kg [1]: 127%
Body Weight Gain (treated minus control) ([2]; 9 mg/kg, 28 days): +9 g
Food Intake ([2]; 9 mg/kg, 28 days): 91 % of control
Circulating Insulin ([2]; 9 mg/kg, 28 days): 83 % of control
Body Weight Gain (treated minus control) ([2]; 17 mg/kg, 28 days): -16 g
Food Intake ([2]; 17 mg/kg, 28 days): 89 % of control
Circulating Insulin ([2]; 17 mg/kg, 28 days): 76 % of control
Circulating Insulin ([2]; 24 mg/kg, 28 days, * p < 0.05): 47 % of control
Body Weight Gain (treated minus control) ([2]; 24 mg/kg, 28 days, * p < 0.05): -32 g
Food Intake ([2]; 24 mg/kg, 28 days, * p < 0.05): 82 % of control
Circulating Insulin ([2]; 28 mg/kg, 64 days, * p < 0.05): 47 % of control
Body Weight Gain (treated minus control) ([2]; 28 mg/kg, 64 days, * p < 0.05): -88 g
Carcass Lipid Difference (treated minus control) ([2]; 28 mg/kg, 64 days, * p < 0.05): -62 g
Food Intake ([2]; 28 mg/kg, 64 days, * p < 0.05): 81 % of control
Circulating Insulin ([2]; 34 mg/kg, 28 days, * p < 0.05): 33 % of control
Body Weight Gain (treated minus control) ([2]; 34 mg/kg, 28 days, * p < 0.05): -55 g
Food Intake ([2]; 34 mg/kg, 28 days, * p < 0.05): 83 % of control
Relative Body Weight Gain Index ([2]; 38 mg/kg, 14 days, gain / days / dose (g/kg)): 92
Food Intake ([2]; 38 mg/kg, 14 days, marked *): 73 % of control
Food Intake ([2]; 28 days of treatment, in words): dose dependent decrease
body weight ([2]; 28 days of treatment, in words): dose dependent decrease in body weight
insulin levels ([2]; 28 days of treatment, in words): dose dependent decrease
body weight ([2]; 64 days, in words): Reduced body weight
carcass lipid ([2]; 64 days, in words): decreased carcass lipid
Glucose levels ([2]; treatment of obese rats, in words): unaltered by treatment
Perfused Pancreas Inhibition Index [3]: 38
Body Weight Gain (treated minus control) ([4]; 38 mg/kg, marked *): -49 g

O=C(CCCCCCCCc1cccnc1)N1CCC(C=C(c2ccccc2)c2ccccc2)CC1 [Example 30, 4-(2,2-Diphenylethenyl)-1-[1-oxo-9-(3-pyridinyl)nonyl]piperidine]
response vs control in vivo at 100 mg/kg [1]: 100%
Body Weight Gain (treated minus control) ([2]; 49 mg/kg, 14 days): -12 g
Food Intake ([2]; 49 mg/kg, 14 days): 100 % of control
Perfused Pancreas Inhibition Index [3]: 1.4
Relative Body Weight Gain Index ([4]; 49 mg/kg, gain / days / dose (g/kg)): 17
